{"source": "patent US6372261B1", "about": "“Process for producing Guilu ErXiangao” (Pharmaceutical Industry Technology and Development Center, priority 2000, dated 2002)", "tested_on": "leukopenia caused by 5-FU", "experiment": "hemopoietic effect in animal experimentation: leukopenia caused by 5-FU in rats, blood cell counts", "format": "in vivo", "key": {"[1]": {"settings": "male rats, 5-FU 100 mg/kg orally twice on 8th day, blood after 14 days, mean ± SEM"}, "[2]": {"settings": "rats, 5-FU model, values of Table 1"}, "[3]": {"settings": "rats, p<0.01 vs control (5-FU), p<0.05 vs trial 1"}}}
{"smiles": "O=c1[nH]cc(F)c(=O)[nH]1", "note": "[Trial 5-FU, 5-fluorouracil]", "values": [{"measurement": "GrC. (granulocyte)", "setting": "[1]", "value": "0.66 ± 0.11 × 10^3/μl"}, {"measurement": "LymC. (lymphocyte)", "setting": "[1]", "value": "2.21 ± 0.15 × 10^3/μl"}, {"measurement": "MonoC. (monocyte)", "setting": "[1]", "value": "0.84 ± 0.12 × 10^3/μl"}, {"measurement": "Platelet", "setting": "[1]", "value": "983.5 ± 52.0 × 10^3/μl"}, {"measurement": "RBC (red blood cell)", "setting": "[1]", "value": "9.58 ± 0.14 × 10^6/μl"}, {"measurement": "WBC (white blood cell)", "setting": "[1]", "value": "3.70 ± 0.23 × 10^3/μl"}, {"measurement": "granulocyte (mean)", "setting": "[2]", "value": "0.66 ± 0.11 10^3/µL"}, {"measurement": "lymphocyte (mean)", "setting": "[2]", "value": "2.21 ± 0.15 10^3/µL"}, {"measurement": "monocyte (mean)", "setting": "[2]", "value": "0.84 ± 0.12 10^3/µL"}, {"measurement": "white blood cells (mean)", "setting": "[2]", "value": "3.7 ± 0.23 10^3/µL"}, {"measurement": "effect on granulocytes (in words)", "setting": "rats, p<0.01 vs control (5-FU) or vs trial 1", "value": "inhibited"}, {"measurement": "effect on lymphocytes (in words)", "setting": "[3]", "value": "inhibited"}, {"measurement": "effect on monocytes (in words)", "setting": "[3]", "value": "inhibited"}, {"measurement": "effect on white blood cells (in words)", "setting": "rats, unpaired student t test, p<0.01 vs control (5-FU) or vs trial 1", "value": "inhibited"}]}
